In brackets after ≈: the same amount, converted by molar mass. Like-named read-outs stand apart in the source and are kept apart here.
Columns and labels:
E. faecalis (ATCC 29212) = assay: Antibacterial activity (MIC), Gram-positive type strain; type: cell-based, Enteroccocus faecalis; settings: Enterococcus faecalis, ATCC29212; Table 13
[1] = test system: N. gonorrheae (ATCC 49226); assay: Antibacterial activity (MIC), Gram-negative type strain; type: cell-based, Neisseria gonorrhoeae; settings: Neisseria gonorrhoeae, ATCC49226; Table 13
S. aureus (ATCC 29213) = assay: Antibacterial activity (MIC), Gram-positive type strain; type: cell-based, Staphylococcus aureus; settings: Staphylococcus aureus, ATCC29213; Table 13
[2] = test system: H. influenzae (ATCC 49247); assay: Antibacterial activity (MIC), Gram-negative type strain; type: cell-based, Haemophilus influenzae; settings: Haemophilus influenzae, ATCC49247; Table 13
E. coli (ATCC 25922) [3] = assay: microbe, parasite or virus in culture; settings: Escherichia coli
E. coli (ATCC 25922) [4] = settings: for MIC of Compound (μg/ml) in the presence of PMBN (128 μg/ml): Table 1, (b) No effect; for MIC of Compound (μg/ml) in the presence of PMBN (32 μg/ml): Table 12, (b) No significant effect
[5] = ATCC25922, read-out: MIC Compound alone, Table 1
[6] = ATCC25922, read-out: MIC Compound alone, Table 12
[7] = ATCC25922, read-out: MIC Compound alone

Compound	MIC (E. faecalis (ATCC 29212)) [µg/mL]	MIC [1] [µg/mL]	MIC (S. aureus (ATCC 29213)) [µg/mL]	MIC [2] [µg/mL]	other results
CCNC(=O)Nc1nc2cc(-c3cccnc3)cc(-c3ncccc3N)c2s1 [Example 94 (WO2007/148093)]					MIC (E. coli (ATCC 25922) [3]; [5]): > 64 µg/mL; MIC of Compound (μg/ml) in the presence of PMBN (128 μg/ml) (E. coli (ATCC 25922) [4]): 32 µg/mL
CCNC(=O)Nc1nc2cc(-c3cccnc3)cc(-c3ccccn3)c2s1 [Example 163 (WO2007/148093)]					MIC (E. coli (ATCC 25922) [3]; [5]): > 64 µg/mL; MIC of Compound (μg/ml) in the presence of PMBN (128 μg/ml) (E. coli (ATCC 25922) [4]): 0.25 µg/mL
C[C@@H](O)[C@H]1C(=O)N2C(C(=O)O)=C(SCCN=CN)C[C@H]12 [Imipenem, reference compound]					MIC (E. coli (ATCC 25922) [3]; [6]): 0.5 µg/mL (≈ 1.67 µM); MIC of Compound (μg/ml) in the presence of PMBN (32 μg/ml) (E. coli (ATCC 25922) [4]): 0.5^(b) μg/ml
NC[C@H]1O[C@H](O[C@H]2[C@H](O)[C@@H](O[C@H]3O[C@H](CO)[C@@H](O)[C@H](N)[C@H]3O)[C@H](N)C[C@@H]2N)[C@H](O)[C@@H](O)[C@@H]1O [Kanamycin, reference compound]					MIC (E. coli (ATCC 25922) [3]; [6]): 8 µg/mL (≈ 16.5 µM); MIC of Compound (μg/ml) in the presence of PMBN (32 μg/ml) (E. coli (ATCC 25922) [4]): 4^(b) μg/ml
C[C@H]1COc2c(N3CCN(C)CC3)c(F)cc3c(=O)c(C(=O)O)cn1c23 [Levofloxacin, reference compound]					MIC (E. coli (ATCC 25922) [3]; [6]): 0.008 µg/mL (≈ 0.0221 µM); MIC of Compound (μg/ml) in the presence of PMBN (32 μg/ml) (E. coli (ATCC 25922) [4]): 0.008^(b) μg/ml
C[C@@H](O)[C@H]1C(=O)N2C(C(=O)O)=C(S[C@@H]3CN[C@H](C(=O)N(C)C)C3)[C@H](C)[C@H]12 [Meropenem, reference compound]					MIC (E. coli (ATCC 25922) [3]; [6]): 0.5 µg/mL (≈ 1.3 µM); MIC of Compound (μg/ml) in the presence of PMBN (32 μg/ml) (E. coli (ATCC 25922) [4]): 0.5^(b) μg/ml
CC1COc2c(N3CCN(C)CC3)c(F)cc3c(=O)c(C(=O)O)cn1c23 (stereo not drawn) [Ofloxacin, reference compound]					MIC (E. coli (ATCC 25922) [3]; [5]): 0.03 µg/mL (≈ 0.083 µM); MIC (E. coli (ATCC 25922) [3]; [6]): 0.03 µg/mL (≈ 0.083 µM); MIC of Compound (μg/ml) in the presence of PMBN (128 μg/ml) (E. coli (ATCC 25922) [4]): 0.03^(b) μg/ml; effect of the presence of PMBN on activity compared to compound alone (E. coli (ATCC 25922) [4]; Table 1 experiment): no effect; MIC of Compound (μg/ml) in the presence of PMBN (32 μg/ml) (E. coli (ATCC 25922) [4]): 0.03^(b) μg/ml
CCN1CCN(C(=O)N[C@@H](C(=O)N[C@@H]2C(=O)N3[C@@H]2SC(C)(C)[C@@H]3C(=O)O)c2ccccc2)C(=O)C1=O [Piperacillin, reference compound]					MIC (E. coli (ATCC 25922) [3]; [7]): 2 µg/mL (≈ 3.86 µM); MIC of Compound (μg/ml) in the presence of PMBN (32 μg/ml) (E. coli (ATCC 25922) [4]): 0.25 µg/mL
CN(C)[C@@H]1C(O)=C(C(N)=O)C(=O)[C@@]2(O)C(O)=C3C(=O)c4c(O)cccc4[C@@](C)(O)[C@H]3C[C@@H]12 [Tetracycline, reference compound]					MIC (E. coli (ATCC 25922) [3]; [7]): 1 µg/mL (≈ 2.25 µM); MIC of Compound (μg/ml) in the presence of PMBN (32 μg/ml) (E. coli (ATCC 25922) [4]): 1^(b) μg/ml
COc1cc(Cc2cnc(N)nc2N)cc(OC)c1OC [Trimethoprim, reference compound]					MIC (E. coli (ATCC 25922) [3]; [6]): 0.5 µg/mL (≈ 1.72 µM); MIC of Compound (μg/ml) in the presence of PMBN (32 μg/ml) (E. coli (ATCC 25922) [4]): 2^(b) μg/ml

The next lines start with results.

MIC (E. faecalis (ATCC 29212)) [µg/mL]	MIC [1] [µg/mL]	MIC (S. aureus (ATCC 29213)) [µg/mL]	MIC [2] [µg/mL]	Compound	other results
0.03 (≈ 0.0589 µM)	0.12 (≈ 0.235 µM)	0.06 (≈ 0.118 µM)	0.5 (≈ 0.981 µM)	CCNC(=O)Nc1nc2cc(-c3cnc(N4CCCCS4(=O)=O)nc3)cc(-c3ccccn3)c2s1 [Compound A-24, 1-(5-(2-(1,1-dioxido-1,2-thiazinan-2-yl)pyrimidin-5-yl)-7-(pyridin-2-yl)benzo[d]thiazol-2-yl)-3-ethyl-urea]	
0.06 (≈ 0.121 µM)	0.5 (≈ 1.01 µM)	0.06 (≈ 0.121 µM)	1 (≈ 2.02 µM)	CCNC(=O)Nc1nc2cc(-c3ccc(N4CCCS4(=O)=O)nc3)cc(-c3ccccn3)c2s1 [Compound A-25, 1-[5-[6-(1,1-dioxo-1,2-thiazolidin-2-yl)-3-pyridyl]-7-(2-pyridyl)-1,3-benzothiazol-2-yl]-3-ethylurea]	
0.06 (≈ 0.121 µM)	0.25 (≈ 0.504 µM)	0.06 (≈ 0.121 µM)	0.5 (≈ 1.01 µM)	CCNC(=O)Nc1nc2cc(-c3cnc(N4CCCS4(=O)=O)nc3)cc(-c3ccccn3)c2s1 [Compound A-26, 1-(5-(2-(1,1-dioxidoisothiazolidin-2-yl)pyrimidin-5-yl)-7-(pyridin-2-yl)benzo[d]thiazol-2-yl)-3-ethylurea]	
0.015 (≈ 0.0294 µM)	0.03 (≈ 0.0589 µM)	0.03 (≈ 0.0589 µM)	0.12 (≈ 0.235 µM)	CCNC(=O)Nc1nc2cc(-c3cnc(N4CCCS4(=O)=O)nc3)cc(-c3ccc(C)cn3)c2s1 [Compound A-28, 1-(5-(2-(1,1-dioxidoisothiazolidin-2-yl)pyrimidin-5-yl)-7-(5-methylpyridin-2-yl)benzo[d]thiazol-2-yl)-3-ethylurea]	
≤ 0.008	≤ 0.008	0.06 (≈ 0.124 µM)	0.008 (≈ 0.0165 µM)	CCNC(=O)Nc1nc2cc(-c3cnc(NS(C)(=O)=O)nc3)cc(-c3ccc(C)cn3)c2s1 [Compound A-30, N-(5-(2-(3-ethylureido)-7-(5-methylpyridin-2-yl)benzo[d]thiazol-5-yl)pyrimidin-2-yl)methanesulfonamide]	
0.03 (≈ 0.0639 µM)	0.03 (≈ 0.0639 µM)	2 (≈ 4.26 µM)	0.015 (≈ 0.0319 µM)	CCNC(=O)Nc1nc2cc(-c3cnc(NS(C)(=O)=O)nc3)cc(-c3ccccn3)c2s1 [Compound A-31, N-(5-(2-(3-ethylureido)-7-(pyridin-2-yl)benzo[d]thiazol-5-yl)pyrimidin-2-yl)methanesulfonamide]	
0.015 (≈ 0.0301 µM)	0.03 (≈ 0.0602 µM)	0.12 (≈ 0.241 µM)	0.015 (≈ 0.0301 µM)	CCNC(=O)Nc1nc2cc(-c3cnc(NS(=O)(=O)N(C)C)nc3)cc(-c3ccccn3)c2s1 [Compound A-32, 1-[5-[2-(dimethylsulfamoylamino)pyrimidin-5-yl]-7-(2-pyridyl)-1,3-benzothiazol-2-yl]-3-ethyl urea]	
0.03 (≈ 0.0603 µM)	0.03 (≈ 0.0603 µM)	0.25 (≈ 0.502 µM)	0.12 (≈ 0.241 µM)	CCCS(=O)(=O)Nc1ncc(-c2cc(-c3ccccn3)c3sc(NC(=O)NCC)nc3c2)cn1 [Compound A-33, N-(5-(2-(3-ethylureido)-7-(pyridin-2-yl)benzo[d]thiazol-5-yl)pyrimidin-2-yl)propane-1-sulfonamide]	
0.015 (≈ 0.0303 µM)	0.015 (≈ 0.0303 µM)	0.25 (≈ 0.504 µM)	0.12 (≈ 0.242 µM)	CCNC(=O)Nc1nc2cc(-c3cnc(NS(=O)(=O)C4CC4)nc3)cc(-c3ccccn3)c2s1 [Compound A-34, N-(5-(2-(3-ethylureido)-7-(pyridin-2-yl)benzo[d]thiazol-5-yl)pyrimidin-2-yl)cyclopropanesulfonamide]	
≤ 0.008	≤ 0.008	≤ 0.008	0.03 (≈ 0.0573 µM)	CCNC(=O)Nc1nc2cc(-c3cnc(NS(=O)(=O)C4CCCC4)nc3)cc(-c3ccccn3)c2s1 [Compound A-35, N-(5-(2-(3-ethylureido)-7-(pyridin-2-yl)benzo[d]thiazol-5-yl)pyrimidin-2-yl)cyclopentanesulfonamide]	
≤ 0.008	≤ 0.008	0.25 (≈ 0.517 µM)	0.03 (≈ 0.062 µM)	CCNC(=O)Nc1nc2cc(-c3cnc(NS(=O)(=O)CC)nc3)cc(-c3ccccn3)c2s1 [Compound A-36, N-(5-(2-(3-ethylureido)-7-(pyridin-2-yl)benzo[d]thiazol-5-yl)pyrimidin-2-yl)ethanesulfonamide]	
0.015 (≈ 0.0301 µM)	0.03 (≈ 0.0602 µM)	0.25 (≈ 0.501 µM)	0.12 (≈ 0.241 µM)	CCNC(=O)Nc1nc2cc(-c3cnc(NS(=O)(=O)NCC)nc3)cc(-c3ccccn3)c2s1 [Compound A-37, 1-ethyl-3-[5-[2-(ethylsulfamoylamino)pyrimidin-5-yl]-7-(2-pyridyl)-1,3-benzothiazol-2-yl]urea]	
≤ 0.008	≤ 0.008	0.015 (≈ 0.0293 µM)	0.03 (≈ 0.0585 µM)	CCNC(=O)Nc1nc2cc(-c3cnc(NS(=O)(=O)N(C)C)nc3)cc(-c3ccc(C)cn3)c2s1 [Compound A-38, 1-[5-[2-(dimethylsulfamoylamino)pyrimidin-5-yl]-7-(5-methyl-2-pyridyl)-1,3-benzothiazol-2-yl]-3-ethyl urea]	
≤ 0.008	0.015 (≈ 0.0293 µM)	0.015 (≈ 0.0293 µM)	0.03 (≈ 0.0585 µM)	CCNC(=O)Nc1nc2cc(-c3cnc(NS(=O)(=O)NCC)nc3)cc(-c3ccc(C)cn3)c2s1 [Compound A-39, 1-ethyl-3-[5-[2-(ethylsulfamoylamino)pyrimidin-5-yl]-7-(5-methyl-2-pyridyl)-1,3-benzothiazol-2-yl]urea]	
≤ 0.008	≤ 0.008	0.015 (≈ 0.0294 µM)	0.015 (≈ 0.0294 µM)	CCNC(=O)Nc1nc2cc(-c3cnc(NS(=O)(=O)C4CC4)nc3)cc(-c3ccc(C)cn3)c2s1 [Compound A-40, N-(5-(2-(3-ethylureido)-7-(5-methylpyridin-2-yl)benzo[d]thiazol-5-yl)pyrimidin-2-yl)cyclopropanesulfonamide]	
≤ 0.008	0.015 (≈ 0.031 µM)	0.5 (≈ 1.03 µM)	0.06 (≈ 0.124 µM)	CCNC(=O)Nc1nc2cc(-c3cnc(NS(=O)(=O)NC)nc3)cc(-c3ccccn3)c2s1 [Compound A-41, 1-ethyl-3-[5-[2-(methylsulfamoylamino)pyrimidin-5-yl]-7-(2-pyridyl)-1,3-benzothiazol-2-yl]urea]	
≤ 0.008	≤ 0.008	0.06 (≈ 0.12 µM)	0.03 (≈ 0.0602 µM)	CCNC(=O)Nc1nc2cc(-c3cnc(NS(=O)(=O)NC)nc3)cc(-c3ccc(C)cn3)c2s1 [Compound A-42, 1-ethyl-3-[7-(5-methyl-2-pyridyl)-5-[2-(methylsulfamoylamino)pyrimidin-5-yl]-1,3-benzothiazol-2-yl]urea]	
≤ 0.008	≤ 0.008	0.03 (≈ 0.0541 µM)	0.03 (≈ 0.0541 µM)	CCNC(=O)Nc1nc2cc(-c3cnc(NS(=O)(=O)N4CCOCC4)nc3)cc(-c3ccc(C)cn3)c2s1 [Compound A-44, N-(5-(2-(3-ethylureido)-7-(5-methylpyridin-2-yl)benzo[d]thiazol-5-yl)pyrimidin-2-yl)morpholine-4-sulfonamide]	
≤ 0.008	≤ 0.008	0.015 (≈ 0.0286 µM)	0.06 (≈ 0.114 µM)	CCNC(=O)Nc1nc2cc(-c3cnc(NS(=O)(=O)N4CCCC4)nc3)cc(-c3ccccn3)c2s1 [Compound A-45, N-(5-(2-(3-ethylureido)-7-(pyridin-2-yl)benzo[d]thiazol-5-yl)pyrimidin-2-yl)pyrrolidine-1-sulfonamide]	

From patent publication US20170007615A1, “Antibacterial Compounds” (priority 2014, published 2017)
